For orientation: half-life means how long it takes for the measured level to halve. A lower half-life goes with fast loss. A word on the IC50: it is the concentration that gives 50% inhibition.

Series [1] can be described thus: Whole blood stability assay, rat whole blood. It counts as in vitro ADME. The settings on record: 37° C. The method, then:
(§1) • 1. Test purpose: to determine the whole blood stability of the compounds by monitoring the clearance rate of the parent compound after incubation of some of the example compounds of the invention with dog and rat whole blood. • 2. […] Test method:
(§2) Then, the stock solution of the test compound was diluted to 1 mmol/L and 0.2 mmol/L with 70% acetonitrile aqueous solution, respectively, as working solution.
(§3) The working solution was added to the whole blood. The concentration of each test compound was 5 μmol/L. 90 μL was taken and then mixed evenly with 90 μL of water. Then 600 μL of acetonitrile termination solution containing propranolol as internal standard was added. Incubated at 37° C. in a water bath and shook gently. At 30, 60, 120 and 240 minutes, 90 μL of each mixture was placed on a clean 96-well plate prefilled with 90 μL of water, mixed well, and then 600 μL of acetonitrile termination solution containing propranolol as internal standard was added and centrifuged at 5000 g for 15 min. 80 μL of the supernatant was taken and placed in a 96-well plate preloaded with 160 μL of ultrapure water, then analyzed by LC-MS/MS.

Series [2] in a line: Whole blood stability assay, dog whole blood. It counts as in vitro ADME. The settings on record: 37° C. As for the experimental part: as §1, §2, §3
The nature of series [3]: Brain tissue distribution test. It counts as in vivo. The note with it: SD rats, PO 20 mg/kg. As for the experimental part:
5 g of methyl cellulose was weighed and dissolved in 1000 mL of purified water to obtain 0.5% methyl cellulose. A required amount of the test compound was weighed and dissolved in 0.5% methylcellulose solution to obtain a suspension of 2 mg/mL.
Administration: SD rats were orally administered (PO) after overnight fasting. Feeding 4 hours after administration.
Sample Collection: 0.5 mL of blood was collected at each time point via the jugular vein. Samples were placed into tubes containing ethylenediamine tetraacetic acid dipotassium salt (K2EDTA) and kept on ice before centrifugation. Within 1 hour after blood collection, blood samples were centrifuged at 2-8° C. and 6800 g for 6 minutes and stored at −80° C. After the rats were euthanized by carbon dioxide inhalation, the brains of the rats were collected, quickly frozen on dry ice, and stored at −80° C. before bioanalysis. The time points for blood collection were 0.5 and 2 hours after oral administration.

Series [4] concerns the target CYP 2C19 (Homo sapiens, UniProt P33261). Briefly: CYP inhibition test, human liver microsomes, CYP2C19. As for the experimental part: • 1. Test purpose: to evaluate the inhibitory ability of some of the example compounds of the present invention against CYP1A2, 2B6, 2C8, 2C9, 2C19, 2D6 and 3A4 via human liver microsomes. • 2. […] Test method:
• 1. K/Mg buffer: the components were 0.1 mol/L potassium phosphate and 5 mmol/L magnesium chloride with pH 7.4±0.1, preheated. • 2. Solution of the test compound: the test compound was dissolved in dimethyl sulfoxide to prepare a stock solution of 10 mmol/L. 8 μL of 10 mmol/L stock solution was transferred to a 96-well plate containing 12 μL of acetonitrile as the highest concentration point, at 3-fold dilution, for 8 concentrations. • 3. NADPH solution: 66.7 mg of NADPH was dissolved in 10 mL of 0.1 mol/L K/Mg buffer to obtain 8 mmol/L NADPH solution with pH 7.4. • 4. Human liver microsomal stock solution: human liver microsomes were dissolved in 0.1 mol/L K/Mg buffer to obtain 20 mg/mL stock solution. • 5. Human liver microsomal working solution: 10 μL of 20 mg/mL human liver microsomal stock solution was taken and added into 990 μL of 0.1 mol/L K/Mg buffer to prepare 0.2 mg/mL human liver microsomal solution. • 6. […]

For series [5], the target named is hERG potassium channel (Homo sapiens, UniProt Q12809). Briefly: hERG experiment, manual membrane clamp on HEK293 cells. Background: hERG is a cardiac potassium channel; its block is linked to QT prolongation.
From the text: hERG Experiment • 1. Test purpose: to test the inhibition of hERG current on HEK293 cells stably transfected with hERG potassium channel by manual membrane clamp; • 2. […] Manual membrane clamp system amplifier was purchased from Molecular Devices (Model No. MultiClamp700B); Manual membrane clamp system digital-to-analog converter was purchased from Molecular Devices (Model No. Axon Digidata1550B); Rapid perfusion system was purchased from ALA Scientific Ins. […] Experimental methods:
The cells were resuspended with culture medium and stored in a centrifuge tube, the supernatant was discarded after centrifugation, then the cells were resuspended with extracellular liquid for later use, and stored at 2-8° C.
The whole-cell membrane clamp technique was applied to record hERG currents. The cell suspension was added into small Petri dishes and placed on an inverted microscope stage. After cells were adhered, they were perfused with extracellular fluid at a recommended flow rate of 1-2 mL/min. The glass microelectrode was drawn in two steps by a micropipette puller, and its resistance value in water was 2-5 MΩ after filling with electrode internal fluid.
After the whole-cell recording mode was established, the clamp potential was maintained at −80 mV. […]
Stimulus release and signal acquisition were performed on PatchMaster software. […] Data was expressed as mean and standard deviation. […]

SMILES strings stand for the structures.

Chain of hERG potassium channel (Q12809 whole entry): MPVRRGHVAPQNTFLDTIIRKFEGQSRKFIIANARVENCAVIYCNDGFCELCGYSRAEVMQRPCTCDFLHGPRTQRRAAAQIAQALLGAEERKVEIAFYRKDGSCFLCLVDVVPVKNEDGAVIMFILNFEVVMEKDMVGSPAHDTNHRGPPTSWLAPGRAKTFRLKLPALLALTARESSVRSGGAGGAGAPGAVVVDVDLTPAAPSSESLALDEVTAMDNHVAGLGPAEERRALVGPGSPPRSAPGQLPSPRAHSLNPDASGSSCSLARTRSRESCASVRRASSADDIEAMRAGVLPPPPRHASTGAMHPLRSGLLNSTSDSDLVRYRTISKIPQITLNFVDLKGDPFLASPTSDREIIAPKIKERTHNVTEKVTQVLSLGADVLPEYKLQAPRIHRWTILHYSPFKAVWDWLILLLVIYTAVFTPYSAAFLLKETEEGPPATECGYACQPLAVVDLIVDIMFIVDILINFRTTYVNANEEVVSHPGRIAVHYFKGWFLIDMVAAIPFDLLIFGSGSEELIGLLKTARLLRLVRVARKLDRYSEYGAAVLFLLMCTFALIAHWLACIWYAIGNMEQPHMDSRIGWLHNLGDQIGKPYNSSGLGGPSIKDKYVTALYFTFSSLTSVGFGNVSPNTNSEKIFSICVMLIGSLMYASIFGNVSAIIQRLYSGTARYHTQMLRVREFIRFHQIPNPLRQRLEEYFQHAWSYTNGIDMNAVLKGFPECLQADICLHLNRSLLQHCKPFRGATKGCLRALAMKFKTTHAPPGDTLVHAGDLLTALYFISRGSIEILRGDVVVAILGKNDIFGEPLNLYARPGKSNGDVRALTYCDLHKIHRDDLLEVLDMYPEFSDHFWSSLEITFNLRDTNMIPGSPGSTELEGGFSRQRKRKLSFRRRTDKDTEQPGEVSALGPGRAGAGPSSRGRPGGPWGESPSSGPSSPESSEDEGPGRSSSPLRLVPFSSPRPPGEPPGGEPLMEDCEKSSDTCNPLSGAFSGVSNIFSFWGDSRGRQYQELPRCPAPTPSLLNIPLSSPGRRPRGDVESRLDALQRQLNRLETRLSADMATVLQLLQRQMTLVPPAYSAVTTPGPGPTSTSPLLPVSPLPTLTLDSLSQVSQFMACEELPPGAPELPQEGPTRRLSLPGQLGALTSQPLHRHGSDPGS
Chain of CYP 2C19 (P33261 whole entry): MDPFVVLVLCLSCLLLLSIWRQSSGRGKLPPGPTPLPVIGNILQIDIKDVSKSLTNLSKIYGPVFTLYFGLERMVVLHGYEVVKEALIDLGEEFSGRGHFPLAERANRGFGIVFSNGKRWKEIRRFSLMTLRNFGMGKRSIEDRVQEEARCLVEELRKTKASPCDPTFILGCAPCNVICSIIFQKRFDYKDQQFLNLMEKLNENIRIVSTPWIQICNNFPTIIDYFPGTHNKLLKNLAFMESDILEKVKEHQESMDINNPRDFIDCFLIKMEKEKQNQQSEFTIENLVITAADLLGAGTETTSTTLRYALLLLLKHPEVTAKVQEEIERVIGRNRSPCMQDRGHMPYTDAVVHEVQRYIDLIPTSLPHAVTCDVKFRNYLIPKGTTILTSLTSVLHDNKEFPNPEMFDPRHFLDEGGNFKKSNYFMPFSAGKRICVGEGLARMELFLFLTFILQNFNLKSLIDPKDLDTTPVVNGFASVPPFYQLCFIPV

Turning to `C=CC(=O)N1CCN(c2nc(=O)n(-c3c(C)ccnc3C(C)C)c3nc(-c4c(O)cccc4F)c(F)cc23)[C@@H](C)C1` [AMG510], the half-life at 5 μmol/L turned out to be 1.85 h in series [1] and 1.46 h in series [2]. For the same molecule, in series [3] (0.5 hours), the “Brain concentration 0.5 hours after administration (ng/g)” value is “Below detection limit”. The “Brain concentration 2 hours after administration (ng/g)” value in series [3] (2 hours) is “Below detection limit”. Further, the half-maximal inhibitory concentration (IC50) is over 10 µM in series [4] and over 30 µM in series [5].
In the case of `C=C(F)C(=O)N1CCN(c2nc(OC[C@@H]3CCCN3C)nc3c2CCN(c2cccc4cccc(Cl)c24)C3)C[C@@H]1CC#N` [MRTX849], the values for the half-life at 5 μmol/L in series [1] and in series [2] were 13.1 h and 6.15 h, respectively. Further, in series [3] (Sprague-Dawley (SD), rat, brain, 0.5 hours, read-out: Brain concentration 0.5 hours after administration), the concentration at 0.5 h worked out at 8 ng/g. Also, the concentration at 2 h in series [3] (Sprague-Dawley (SD), rat, brain, 2 hours, read-out: Brain concentration 2 hours after administration) was determined as 69.8 ng/g. Further, the IC50 in series [4] is over 10 µM; in series [5], 0.99 µM.

(Values after patent publication US20250034161A1, “SPIROCYCLIC COMPOUND AS KRAS-G12C INHIBITOR” (Shanghai Euregen Biopharma Co., Ltd., priority 2020, published 2025).)
